According to PubChem BioAssay AID1963432 (Molecular Pharmacology Branch, DTP, NCI, 2024):

System: SYO-1 complex spheroid growth, percent test/control
Assay: Anticancer human tumor SYO-1 cell line growth inhibition [Asc];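 also: compound exposure lasted 7 days after spheroids grew 3 days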;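 as to viability, T/C: 100% = DMSO vehicle control viability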
Settings: for IC50: curve of first compound; for viability, T/C: stronger effect = lower value
Protocol: Multicellular complex tumor spheroid response to apoptosis pathway targeting inhibitors Alrizomadlin, Pelcitoclax, and Dasminapant in combination with a variety of drugs and investigational agents in selected tumor cell lines
The MDM2 inhibitor alrizomadlin, the Bcl-2/Bcl-xL inhibitor pelcitoclax, and the IAPs inhibitor dasminapant were evaluated both individually and in combination with standard of care and investigational anticancer small molecules within a complex spheroid model of solid tumors. . Complex spheroids include a stromal component modeled by human endothelial cells (HUVEC) and fibroblasts modeled by human mesenchymal stem cells (MSCs). The concentration ranges selected for each drug and investigational agent were based upon clinically achievable concentrations if the clinical Cmax of the agent was known.
Compounds. The drugs and investigational agents: alrizomadlin (APG-115; NSC831270), pelcitoclax (APG-1252; NSC835773), dasminapant (APG-1387;NSC834197), TAK-243 (NSC785004), copanlisib (NSC809693), olaparib (NSC753686), talazoparib (NSC767125), cobimetinib (NSC 768068), eltanexor (KPT-8602, NSC 794443), abemaciclib (NSC 768073), sotorasib (NSC818433), adagrasib (NSC 831453), MRTX-1133 (NSC 836407), Iadademestat (ORY1001, NSC 806812), and RMC-4630 (NSC839698), were obtained from the NCI Developmental Therapeutics Program Chemical Repository. The FDA-approved anticancer drug set is available from the Developmental Therapeutics Program at https://dtp.cancer.gov/organization/dscb/obtaining/available plates.htm. […] The stock solutions were prepared in dimethyl sulfoxide (DMSO, Sigma-Aldrich, St. Louis, MO, cat. D2650) at 800-fold the tested concentration and stored at -70 degrees C prior to their use. All drugs and investigational agents were tested over a range starting from a high concentration at or near the clinical Cmax and decreasing in half-log increments. If the clinical Cmax for an agent had not been determined, the highest concentration tested was 10 microM.
The patient-derived cancer (PDC) cell lines include five colon adenocarcinomas: 186277-243-T-J2-PDC, 616215-338-R-J1-PDC, 439559-082-T-J2-PDC, 463943-066-T-J2-PDC, and 519858-162-T-J1-PDC; three pancreatic carcinomas: 323965-272-R-J2-PDC, 521955-158-R6-J3-PDC, and 521955-158-R2-J5-PDC; two uterine sarcomas: 327498-152-R-J2-PDC and 993429-296-R-J1-PDC; two rhabdomyosarcomas: 755483-174-R-J1-PDC and 772245-204-R-J1-PDC; two soft tissue sarcomas: 126254-015-R-J1-PDC and 494315-158-R-J1-PDC; two malignant fibrous histiocytomas: 317291-083-R-J1-PDC and 596521-263-R-J1-PDC; two breast carcinomas: 171881-019-R-J1-PDC and 885512-296-R-J2-PDC; and one ovarian carcinoma: 6556581-035-R-J-PDC were obtained from the NCI PDMR, (https://pdmr.cancer.gov). The established cell lines HSSY-2 synovial sarcoma (RRID:CVCL 8719), SYO-1 synovial sarcoma (RRID:CVCL_7146), MPNST malignant peripheral neural sheath tumor were obtained from the Sloan Kettering Institute. The following established cell lines were purchased from the American Type Culture Collection (ATCC, Manassas, VA), Sor the received from the NCI repository:, PANC-1 pancreatic carcinoma (CRL-1469, RRID:CVCL_0480), OVCAR-5 ovarian carcinoma (RRID:CVCL_1628), OVCAR-8 ovarian carcinoma (RRID:CVCL_1629), , MCF-7 breast carcinoma (CRL-12584, RRID:CVCL_0031), MDA-MB-231 breast carcinoma (CRL-12532, RRID:CVCL_0062), NCI-H1876 small cell lung carcinoma (CRL-5902, RRID:CVCL_1503), NCI-H510A small cell lung carcinoma (HTB-184, RRID:CVCL_1565), NCI-H1417 (CRL-5869, RRID:CVCL_1469), and NCI-H196 small cell lung carcinoma (CRL-5823, RRID:CVCL_1509). Dr. Peter Houghton (Greehey Children's Cancer Research Institute, University of Texas Health Science Center, San Antonio, TX) provided Rh-18 rhabdomyosarcoma (RRID:CVCL_1659). Pooled donor human umbilical vein endothelial cells (HUVEC, Lonza, cat. CC-2519) and human mesenchymal stem cells (hMSC, Lonza, cat. PT-2501) were purchased from Lonza (Walkersville, MD).
Cell Culture. […]

In the case of `C#Cc1c(F)ccc2cc(O)cc(-c3ncc4c(N5CC6CCC(C5)N6)nc(OCC56CCCN5CC(F)C6)nc4c3F)c12` (centres undefined) + CNC(C)C(=O)NC1CN(S(=O)(=O)c2cccc(S(=O)(=O)N3CCC4CCC(C(=O)NC(c5ccccc5)c5ccccc5)N4C(=O)C(NC(=O)C(C)NC)C3)c2)CCC2CCC(C(=O)NC(c3ccccc3)c3ccccc3)N2C1=O, the IC50 (second compound 0.00316 µM) is reported as > 10000 nM, the IC50 (second compound 0.01 µM) is reported as > 10000 nM and the IC50 (second compound 0.0316 µM) is reported as > 10000 nM. For the same compound, the IC50 (second compound 0.1 µM) was > 10000 nM, the IC50 (second compound 0.316 µM) was > 10000 nM and the IC50 (second compound 1 µM) was > 10000 nM. It also gave a viability, T/C (second compound 0.00316 µM, first compound 0.0316 µM) of 106%, a viability, T/C (second compound 0.00316 µM, first compound 0.1 µM) of 102% and a viability, T/C (second compound 0.00316 µM, first compound 0.316 µM) of 101%. For the same compound, the viability, T/C (second compound 0.00316 µM, first compound 1 µM) was 103%, the viability, T/C (second compound 0.00316 µM, first compound 3.16 µM) was 110% and the viability, T/C (second compound 0.00316 µM, first compound 10 µM) was 106%. For the same compound, the viability, T/C (second compound 0.01 µM, first compound 0.0316 µM) was 104%, the viability, T/C (second compound 0.01 µM, first compound 0.1 µM) was 93.3% and the viability, T/C (second compound 0.01 µM, first compound 0.316 µM) was 102%. The viability, T/C (second compound 0.01 µM, first compound 1 µM) was 108%, the viability, T/C (second compound 0.01 µM, first compound 3.16 µM) was 112% and the viability, T/C (second compound 0.01 µM, first compound 10 µM) was 105%. The viability, T/C (second compound 0.0316 µM, first compound 0.0316 µM) was 96.8%, the viability, T/C (second compound 0.0316 µM, first compound 0.1 µM) was 106% and the viability, T/C (second compound 0.0316 µM, first compound 0.316 µM) was 101%. It also gave a viability, T/C (second compound 0.0316 µM, first compound 1 µM) of 106%, a viability, T/C (second compound 0.0316 µM, first compound 3.16 µM) of 106% and a viability, T/C (second compound 0.0316 µM, first compound 10 µM) of 106%. It also gave a viability, T/C (second compound 0.1 µM, first compound 0.0316 µM) of 111%, a viability, T/C (second compound 0.1 µM, first compound 0.1 µM) of 97.5% and a viability, T/C (second compound 0.1 µM, first compound 0.316 µM) of 105%. The viability, T/C (second compound 0.1 µM, first compound 1 µM) was 111%, the viability, T/C (second compound 0.1 µM, first compound 3.16 µM) was 120% and the viability, T/C (second compound 0.1 µM, first compound 10 µM) was 99.6%. The viability, T/C (second compound 0.316 µM, first compound 0.0316 µM) was 98.7%, the viability, T/C (second compound 0.316 µM, first compound 0.1 µM) was 99.1% and the viability, T/C (second compound 0.316 µM, first compound 0.316 µM) was 108%. The viability, T/C (second compound 0.316 µM, first compound 1 µM) was 108%, the viability, T/C (second compound 0.316 µM, first compound 3.16 µM) was 116% and the viability, T/C (second compound 0.316 µM, first compound 10 µM) was 102%. The viability, T/C (second compound 1 µM, first compound 0.0316 µM) was 99.7%, the viability, T/C (second compound 1 µM, first compound 0.1 µM) was 106% and the viability, T/C (second compound 1 µM, first compound 0.316 µM) was 106%. For the same compound, the viability, T/C (second compound 1 µM, first compound 1 µM) was 103%, the viability, T/C (second compound 1 µM, first compound 3.16 µM) was 106% and the viability, T/C (second compound 1 µM, first compound 10 µM) was 105%.

For `NC(=O)C(=Cn1cnc(-c2cc(C(F)(F)F)cc(C(F)(F)F)c2)n1)c1cncnc1` + CCN1C(C(=O)NC23CCC(C(=O)O)(CC2)CC3)C(c2cccc(Cl)c2F)C2(C(=O)Nc3cc(Cl)ccc32)C12CCCCC2, the IC50 (second compound 0.00949 µM) was 165 nM, the IC50 (second compound 0.03 µM) was 134 nM and the IC50 (second compound 0.0949 µM) was 41.7 nM. The IC50 (second compound 0.3 µM) was < 0.949 nM, the IC50 (second compound 0.949 µM) was < 0.949 nM and the IC50 (second compound 3 µM) was < 0.949 nM. It also gave a viability, T/C (second compound 0.00949 µM, first compound 0.000949 µM) of 96.3%, a viability, T/C (second compound 0.00949 µM, first compound 0.003 µM) of 96.1% and a viability, T/C (second compound 0.00949 µM, first compound 0.00949 µM) of 99.3%. It also gave a viability, T/C (second compound 0.00949 µM, first compound 0.03 µM) of 87.8%, a viability, T/C (second compound 0.00949 µM, first compound 0.0949 µM) of 87.5% and a viability, T/C (second compound 0.00949 µM, first compound 0.3 µM) of 9.44%. The viability, T/C (second compound 0.03 µM, first compound 0.000949 µM) was 99.4%, the viability, T/C (second compound 0.03 µM, first compound 0.003 µM) was 94.6% and the viability, T/C (second compound 0.03 µM, first compound 0.00949 µM) was 90.1%. For the same compound, the viability, T/C (second compound 0.03 µM, first compound 0.03 µM) was 90.5%, the viability, T/C (second compound 0.03 µM, first compound 0.0949 µM) was 69.4% and the viability, T/C (second compound 0.03 µM, first compound 0.3 µM) was 5.52%. It also gave a viability, T/C (second compound 0.0949 µM, first compound 0.000949 µM) of 83.4%, a viability, T/C (second compound 0.0949 µM, first compound 0.003 µM) of 80.9% and a viability, T/C (second compound 0.0949 µM, first compound 0.00949 µM) of 76.6%. The viability, T/C (second compound 0.0949 µM, first compound 0.03 µM) was 64.6%, the viability, T/C (second compound 0.0949 µM, first compound 0.0949 µM) was 14.6% and the viability, T/C (second compound 0.0949 µM, first compound 0.3 µM) was 1.56%. The viability, T/C (second compound 0.3 µM, first compound 0.000949 µM) was 20.1%, the viability, T/C (second compound 0.3 µM, first compound 0.003 µM) was 21.6% and the viability, T/C (second compound 0.3 µM, first compound 0.00949 µM) was 12.9%. It also gave a viability, T/C (second compound 0.3 µM, first compound 0.03 µM) of 8.55%, a viability, T/C (second compound 0.3 µM, first compound 0.0949 µM) of 1.72% and a viability, T/C (second compound 0.3 µM, first compound 0.3 µM) of 0.32%. The viability, T/C (second compound 0.949 µM, first compound 0.000949 µM) was 2.25%, the viability, T/C (second compound 0.949 µM, first compound 0.003 µM) was 1.92% and the viability, T/C (second compound 0.949 µM, first compound 0.00949 µM) was 1.01%. For the same compound, the viability, T/C (second compound 0.949 µM, first compound 0.03 µM) was 0.78%, the viability, T/C (second compound 0.949 µM, first compound 0.0949 µM) was 0.55% and the viability, T/C (second compound 0.949 µM, first compound 0.3 µM) was 1.54%. It also gave a viability, T/C (second compound 3 µM, first compound 0.000949 µM) of 0.73%, a viability, T/C (second compound 3 µM, first compound 0.003 µM) of 1.1% and a viability, T/C (second compound 3 µM, first compound 0.00949 µM) of 0.93%. For the same compound, the viability, T/C (second compound 3 µM, first compound 0.03 µM) was 1.16%, the viability, T/C (second compound 3 µM, first compound 0.0949 µM) was 1.19% and the viability, T/C (second compound 3 µM, first compound 0.3 µM) was 2%.
